Measured values: patent US20020137929A1, “1 - (3-heterocyclylphenyl) isothiourea, -isourea, -guanidine and -amidine herbicidal agents” (Intellectual Property Department, BASF Aktiengesellschaft, priority 1998, published 2002)

What was measured:
[1] = tested on: IPOHE (Morningglory, Ivyleaf); assay: Preemergence herbicidal evaluation; type: in vivo, Ipomoea hederacea; conditions: rated 4-5 weeks after treatment
Method in brief: (§1)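 Greenhouse preemergence test: seed-soil mix sown on ~1 inch soil; aqueous acetone spray at equivalent of ~0.0156–0.500 kg/ha; greenhouse-held and watered; scored 0–9 visually at 4–5 weeks.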

[2] = tested on: TRZAWR (Wheat, Winter, cv Riband); assay: Postemergence herbicidal evaluation; type: in vivo, Triticum aestivum; conditions: postemergence
Method in brief: (§2)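 Two-week-old seedlings sprayed with compound in 50/50 acetone/water plus 0.5% TWEEN 20, at about 0.0156 to 0.500 kg/ha, nozzle at 40 psi. Kept in greenhouse; rated visually 4-5 weeks after treatment on a 0-9 scale versus control, repeat tests averaged.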

GALAP (Galium) = assay: Postemergence herbicidal evaluation; type: in vivo, Galium aparine; conditions: postemergence
Method in brief: as §2

MOOVA (Monochoria) = assay: Preemergence weed control under flooded paddy conditions; type: in vivo, Monochoria vaginalis; conditions: rated 3-4 weeks after treatment
Method in brief: (§3)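 Silt loam, seeds in top 0.5 cm; flood held 1.5-3 cm; test cpd as acetone/water 50/50 into flood water, ~0.0313-0.500 kg/ha a.i.; greenhouse 3-4 wk; visual 0-9 score vs control.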

SETVI (Foxtail, Green) [3] = assay: Preemergence herbicidal evaluation; type: in vivo, Setaria viridis; conditions: rated 4-5 weeks after treatment
Method in brief: as §1

[4] = tested on: ECHORC (Watergrass (Calif.)); assay: Preemergence weed control under flooded paddy conditions; type: in vivo, Echinochloa oryzoides; conditions: rated 3-4 weeks after treatment
Method in brief: as §3

SETVI (Foxtail, Green) [5] = assay: Postemergence herbicidal evaluation; type: in vivo, Setaria viridis; conditions: postemergence
Method in brief: as §2

CYPIR (Rice Flatsedge) = assay: Preemergence weed control under flooded paddy conditions; type: in vivo, Cyperus iria; conditions: rated 3-4 weeks after treatment
Method in brief: as §3

[6] = tested on: IPOHE (Morningglory, Ivyleaf); assay: Postemergence herbicidal evaluation; type: in vivo, Ipomoea hederacea; conditions: postemergence
Method in brief: as §2

[7] = tested on: SAGPY (Arrowhead (Pygmaea)); assay: Postemergence weed control under flooded paddy conditions; type: in vivo, Sagittaria pygmaea; conditions: postemergence weeds, 3-4 weeks after treatment
Method in brief: (§4)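 With weeds 3 to 5 cm tall and rice at the 1.5 to 2.5 leaf stage, containers were flooded and water held 1.5 to 3 cm above soil. Compounds in 50/50 v/v aqueous/acetone went into the flood water at about 0.0313 to 0.500 kg/ha a.i. Effects were visually rated 0–9 against controls after three to four weeks in the greenhouse.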

ABUTH (Velvetleaf) = assay: Preemergence herbicidal evaluation; type: in vivo, Abutilon theophrasti; conditions: rated 4-5 weeks after treatment
Method in brief: as §1

ECHCG (Barnyardgrass) = assay: Preemergence herbicidal evaluation; type: in vivo, Echinochloa crus-galli; conditions: rated 4-5 weeks after treatment
Method in brief: as §1

[8] = tested on: ECHORC (Watergrass (Calif.)); assay: Postemergence weed control under flooded paddy conditions; type: in vivo, Echinochloa oryzoides; conditions: postemergence weeds, 3-4 weeks after treatment
Method in brief: as §4

ZEAMX (Corn, Field) = assay: Preemergence herbicidal evaluation; type: in vivo, Zea mays; conditions: rated 4-5 weeks after treatment
Method in brief: as §1

For CCC1SC(=Nc2cc(-n3c(=O)cc(C(F)(F)F)n(C)c3=O)c(F)cc2Cl)N(C)C1=O (stereo not shown) [Compound 10], the “IPOHE preemergence herbicidal rating” value ([1]; rate 0.0156 kg/ha) was 2.0, the “IPOHE preemergence herbicidal rating” value ([1]; rate 0.0313 kg/ha) was 3.0 and the “IPOHE preemergence herbicidal rating” value ([1]; rate 0.0625 kg/ha) was 5.3. The “IPOHE preemergence herbicidal rating” value ([1]; rate 0.1250 kg/ha) was 8.3, the “IPOHE preemergence herbicidal rating” value ([1]; rate 0.2500 kg/ha) was 9.0 and the TRZAWR herbicidal rating ([2]; rate 0.0156 kg/ha) was 2.5. The TRZAWR herbicidal rating ([2]; rate 0.0313 kg/ha) was 3.3, the TRZAWR herbicidal rating ([2]; rate 0.0625 kg/ha) was 3.3 and the TRZAWR herbicidal rating ([2]; rate 0.1250 kg/ha) was 3.5. It also gave a GALAP herbicidal rating (GALAP (Galium); rate 0.0156 kg/ha) of 1.0, a GALAP herbicidal rating (GALAP (Galium); rate 0.0313 kg/ha) of 2.0 and a GALAP herbicidal rating (GALAP (Galium); rate 0.0625 kg/ha) of 3.5. The GALAP herbicidal rating (GALAP (Galium); rate 0.1250 kg/ha) was 4.5, the “Herbicidal rating MOOVA” value (MOOVA (Monochoria); 0.0313 kg/ha) was 9.0 and the “Herbicidal rating MOOVA” value (MOOVA (Monochoria); 0.0625 kg/ha) was 9.0. The “Herbicidal rating MOOVA” value (MOOVA (Monochoria); 0.1250 kg/ha) was 9.0, the “Herbicidal rating MOOVA” value (MOOVA (Monochoria); 0.2500 kg/ha) was 9.0 and the “SETVI preemergence herbicidal rating” value (SETVI (Foxtail, Green) [3]; rate 0.0156 kg/ha) was 2.3. The “SETVI preemergence herbicidal rating” value (SETVI (Foxtail, Green) [3]; rate 0.0313 kg/ha) was 5.7, the “SETVI preemergence herbicidal rating” value (SETVI (Foxtail, Green) [3]; rate 0.0625 kg/ha) was 9.0 and the “SETVI preemergence herbicidal rating” value (SETVI (Foxtail, Green) [3]; rate 0.1250 kg/ha) was 9.0. The “SETVI preemergence herbicidal rating” value (SETVI (Foxtail, Green) [3]; rate 0.2500 kg/ha) was 9.0, the “Herbicidal rating ECHORC” value ([4]; 0.0313 kg/ha) was 0.0 and the “Herbicidal rating ECHORC” value ([4]; 0.0625 kg/ha) was 1.0. For the same compound, the “Herbicidal rating ECHORC” value ([4]; 0.1250 kg/ha) was 2.0, the “Herbicidal rating ECHORC” value ([4]; 0.2500 kg/ha) was 2.0 and the SETVI herbicidal rating (SETVI (Foxtail, Green) [5]; rate 0.0156 kg/ha) was 0.0. For the same compound, the SETVI herbicidal rating (SETVI (Foxtail, Green) [5]; rate 0.0313 kg/ha) was 0.0, the SETVI herbicidal rating (SETVI (Foxtail, Green) [5]; rate 0.0625 kg/ha) was 1.0 and the SETVI herbicidal rating (SETVI (Foxtail, Green) [5]; rate 0.1250 kg/ha) was 3.0. The “Herbicidal rating CYPIR” value (CYPIR (Rice Flatsedge); 0.0313 kg/ha) was 0.0, the “Herbicidal rating CYPIR” value (CYPIR (Rice Flatsedge); 0.0625 kg/ha) was 0.0 and the “Herbicidal rating CYPIR” value (CYPIR (Rice Flatsedge); 0.1250 kg/ha) was 2.0. The “Herbicidal rating CYPIR” value (CYPIR (Rice Flatsedge); 0.2500 kg/ha) was 4.0, the IPOHE herbicidal rating ([6]; rate 0.0156 kg/ha) was 3.0 and the IPOHE herbicidal rating ([6]; rate 0.0313 kg/ha) was 7.0. The IPOHE herbicidal rating ([6]; rate 0.0625 kg/ha) was 9.0, the IPOHE herbicidal rating ([6]; rate 0.1250 kg/ha) was 8.0 and the “Herbicidal rating SAGPY” value ([7]; rate 0.0313 kg/ha) was 0.0. The “Herbicidal rating SAGPY” value ([7]; rate 0.0625 kg/ha) was 0.0, the “Herbicidal rating SAGPY” value ([7]; rate 0.1250 kg/ha) was 0.0 and the “Herbicidal rating SAGPY” value ([7]; rate 0.2500 kg/ha) was 0.0. For the same compound, the “ABUTH preemergence herbicidal rating” value (ABUTH (Velvetleaf); rate 0.0156 kg/ha) was 5.5, the “ABUTH preemergence herbicidal rating” value (ABUTH (Velvetleaf); rate 0.0313 kg/ha) was 8.0 and the “ABUTH preemergence herbicidal rating” value (ABUTH (Velvetleaf); rate 0.0625 kg/ha) was 9.0. The “ABUTH preemergence herbicidal rating” value (ABUTH (Velvetleaf); rate 0.1250 kg/ha) was 9.0, the “ABUTH preemergence herbicidal rating” value (ABUTH (Velvetleaf); rate 0.2500 kg/ha) was 9.0 and the “ECHCG preemergence herbicidal rating” value (ECHCG (Barnyardgrass); rate 0.0156 kg/ha) was 2.0. For the same compound, the “ECHCG preemergence herbicidal rating” value (ECHCG (Barnyardgrass); rate 0.0313 kg/ha) was 4.0, the “ECHCG preemergence herbicidal rating” value (ECHCG (Barnyardgrass); rate 0.0625 kg/ha) was 7.0 and the “ECHCG preemergence herbicidal rating” value (ECHCG (Barnyardgrass); rate 0.1250 kg/ha) was 9.0. The “ECHCG preemergence herbicidal rating” value (ECHCG (Barnyardgrass); rate 0.2500 kg/ha) was 9.0, the “Herbicidal rating ECHORC” value ([8]; rate 0.0313 kg/ha) was 0.0 and the “Herbicidal rating ECHORC” value ([8]; rate 0.0625 kg/ha) was 1.0. For the same compound, the “Herbicidal rating ECHORC” value ([8]; rate 0.1250 kg/ha) was 2.0, the “Herbicidal rating ECHORC” value ([8]; rate 0.2500 kg/ha) was 2.0 and the “ZEAMX preemergence herbicidal rating” value (ZEAMX (Corn, Field); rate 0.0156 kg/ha) was 4.7. The “ZEAMX preemergence herbicidal rating” value (ZEAMX (Corn, Field); rate 0.0313 kg/ha) was 6.7, the “ZEAMX preemergence herbicidal rating” value (ZEAMX (Corn, Field); rate 0.0625 kg/ha) was 7.0 and the “ZEAMX preemergence herbicidal rating” value (ZEAMX (Corn, Field); rate 0.1250 kg/ha) was 7.3. For the same compound, the “ZEAMX preemergence herbicidal rating” value (ZEAMX (Corn, Field); rate 0.2500 kg/ha) was 8.0.
